Assay results from patent US20070280975A1, “Method for Producing Maca Extract” (Suntory Limited, priority 2004, published 2007).

System: mast cells
Assay: Suppressive effect on the isolation of histamine from mast cells (compound 48/80 induced)
Type: cell-based, Wister rats
Details: DSCG 0.1 mg/mL; same line of test procedures
Description: The anti-allergic effects of the Maca extract of the present invention can be evaluated by the suppressive effect on the isolation of histamine from mast cells. The Suppressive Effect on the Isolation of Histamine from Mast Cells The test was conducted according to the method of Yuko HIRAI, et al. (Natural Medicines: Vol. 37, p374-380, 1983). That is, Tyrode was interperitoneally injected to Wister rats bled to death and peritoneal cavity cells were taken. Therefrom, mast cells were isolated by the multilevel centrifugal method using Bovine Serum Albumin (BSA)/physiological saline (relative gravity: 1.068). […] The resultant was then ice cooled and amount of histamine in the supernatant after centrifugation (150 g×5 minutes) was measured by high performance liquid chromatography with fluorescence detector attachment. […] The solution obtained was each measured to 0.25 mg/mL, and the above explained suppressive effect on the isolation of histamine from mast cell was evaluated. On the other hand, the above explained suppressive effect on the isolation of histamine from mast cell was evaluated for control solutions 1 to 3 which were obtained in the same procedures as for the solutions of the present invention except for extraction condition such as extraction temperature and ethanol concentration.

## O=C(O)c1cc(=O)c2c(OCC(O)COc3cccc4oc(C(=O)O)cc(=O)c34)cccc2o1 [DSCG, sodium cromoglycate]
  suppressive effect on isolation of histamine: 50%
